According to patent US7420029B2, “Tissue-specific transporter inhibitor” (Japan Science and Technology Agency, priority 2001, dated 2008):
Blank lines part the entries; values can stand above or below the compound they belong to.

Columns and labels:
PEPT 1 [1] = target: T1, PEPT 1 (Rattus norvegicus, UniProt P51574); assay: in vivo; details: male, Sprague-Dawley, po; for Tmax: Tmax of CDX
T1 sequence (P51574 1-710): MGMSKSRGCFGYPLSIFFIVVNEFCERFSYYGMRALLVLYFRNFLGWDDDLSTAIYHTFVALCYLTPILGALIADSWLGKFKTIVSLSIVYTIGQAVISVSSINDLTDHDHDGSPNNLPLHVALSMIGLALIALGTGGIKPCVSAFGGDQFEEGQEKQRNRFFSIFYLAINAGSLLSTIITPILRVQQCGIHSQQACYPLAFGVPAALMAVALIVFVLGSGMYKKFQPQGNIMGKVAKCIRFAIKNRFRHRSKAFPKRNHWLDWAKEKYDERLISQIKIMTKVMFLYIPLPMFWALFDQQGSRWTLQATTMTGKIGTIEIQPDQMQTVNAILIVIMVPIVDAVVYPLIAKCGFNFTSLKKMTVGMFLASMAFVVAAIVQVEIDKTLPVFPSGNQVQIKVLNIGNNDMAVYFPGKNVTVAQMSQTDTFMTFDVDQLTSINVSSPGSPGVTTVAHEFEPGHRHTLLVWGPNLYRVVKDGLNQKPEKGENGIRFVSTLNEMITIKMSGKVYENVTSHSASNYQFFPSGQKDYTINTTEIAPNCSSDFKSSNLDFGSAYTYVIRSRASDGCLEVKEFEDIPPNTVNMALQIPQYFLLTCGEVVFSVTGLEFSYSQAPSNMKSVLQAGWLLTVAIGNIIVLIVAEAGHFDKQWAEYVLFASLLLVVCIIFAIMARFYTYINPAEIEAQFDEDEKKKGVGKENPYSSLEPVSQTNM
Description: (§1) At the column temperature 35° C., 7% of acetonitrile (containing 0.1 M of acetic acid buffer (pH 3.0) and 0.01 M of 1-pentasulfonic acid sodium) was used as a mobile phase for separating elution at flow rate 0.9 ml/min. The detection was conducted at wavelength 240 nm, and CDX concentration in the plasma was determined.
(§2) In the formula, C, F, D, ka, ke, Vd and t represent CDX concentration in the plasma, absorptance, dosage, absorption rate constant, elimination rate constant, distribution volume, and time interval between the drug administration and blood collection, respectively.
(§3) In the formula, CL represents total clearance, Dose represents the dose of the drug, respectively.
(§4) With regard to 2.5 mg/kg CDX and 45 mg/kg CEX (▾), CEX was orally administered to the rats 30 minutes before the administration of CDX. Each pharmacokinetic parameter of the above-mentioned rats was calculated based on the change in the CDX concentration in the blood, with the formula (4), the formula (6), the formula (7), and the formula (8), and evaluated. Values shown in the figure and the table are the mean±S.E.M. of three to four independent experiments.
(§5) Then each pharmacokinetic parameter was calculated based on the change in the CDX concentration in the blood, with the formula (4), the formula (6), the formula (7), and the formula (8), and evaluated. […] Values shown in the figures are the mean±S.E.M. of two to four independent experiments, and values shown in the tables are the mean±S.E.M. of three independent experiments.
(§6) Values shown in the figure and the table are the mean±S.E.M. of two to four independent experiments.
(§7) VK-PRK was orally administered 30 minutes before CDX administration. […] Values shown in FIG. 10, FIG. 11 and Table 14 are the mean±S.E.M. of four independent experiments, and values shown in Table 13 are the mean±S.E.M. of three independent experiments.
(§8) Values shown in the figure are the mean±S.E.M. of three independent experiments, and values shown in the table are the mean±S.E.M. of four independent experiments.

PEPT 1 [2] = target: T1, PEPT 1; details: in vivo, po
Description: as §1, §2, §3, §4, §5, §6, §7, §8

[3] = CDX plasma pharmacokinetics after instant intravenous injection to rats with or without oral VK-PRX; details: male, Sprague-Dawley, rat
Description: as §1
In the formula, α, β and V1 represent gradient of distribution phase, gradient of elimination phase, and distribution volume of central compartment, respectively.
as §3

hPEPT 1 [4] = target: T2, hPEPT 1 (Homo sapiens, UniProt P46059); assay: Inhibitory effect on [^3H] Gly-Sar uptake by HeLa-hPEPT 1 cells; assay type: cell-based; details: for [^3H] Gly-Sar uptake % of control: HeLa-hPEPT 1, pH 6.0, 2 min
T2 construct: expressed in transfected cells; mock = HeLa-pcDNA 3
T2 sequence (P46059 1-708): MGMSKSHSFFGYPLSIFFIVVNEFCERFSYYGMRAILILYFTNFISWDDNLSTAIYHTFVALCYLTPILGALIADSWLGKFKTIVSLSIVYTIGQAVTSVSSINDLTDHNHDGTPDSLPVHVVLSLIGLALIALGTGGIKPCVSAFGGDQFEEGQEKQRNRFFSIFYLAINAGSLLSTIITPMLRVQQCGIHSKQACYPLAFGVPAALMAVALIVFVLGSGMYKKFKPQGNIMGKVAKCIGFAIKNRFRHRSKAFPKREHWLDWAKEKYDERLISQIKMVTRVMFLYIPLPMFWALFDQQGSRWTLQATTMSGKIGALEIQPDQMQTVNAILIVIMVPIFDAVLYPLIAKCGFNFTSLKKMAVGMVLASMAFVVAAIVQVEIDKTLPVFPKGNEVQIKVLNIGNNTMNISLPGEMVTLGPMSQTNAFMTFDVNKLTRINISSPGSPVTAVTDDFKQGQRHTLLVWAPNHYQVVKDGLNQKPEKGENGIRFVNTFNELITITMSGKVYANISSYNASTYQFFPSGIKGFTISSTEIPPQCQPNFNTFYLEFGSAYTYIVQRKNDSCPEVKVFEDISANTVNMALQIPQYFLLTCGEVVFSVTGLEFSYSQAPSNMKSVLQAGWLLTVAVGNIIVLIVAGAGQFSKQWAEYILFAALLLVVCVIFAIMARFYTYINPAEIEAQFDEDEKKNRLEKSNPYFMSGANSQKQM
Description: In order to examine the recognition property of VK-PRX and its component, VK-α-CD, both obtained in Example 4, to PEPT 1, the inihibitory effect to the uptake of [^3H] Gly-Sar by using HeLa cells stably expressing hPEPT 1 (HeLa-hPEPT 1) was examined. HeLa-hPEPT 1 cells or HeLa-pcDNA (Mock) cells prepared by the method described previously (Int. J. Cancer. 88, 274-80, 2000) were placed in a multidish (Nunc) at 10^6 cells/well and cultured in an incubator (Hirasawa) at 37° C. and 5% CO2 for four days. As a broth, DMEM (Dulbecco's modified Eagle's medium; Gibco Laboratories) containing 10% FCS (Gibco Laboratories), 2 mM L-glutamine, and 1 mg/ml G418 was used. After culture, the broth was aspirated and each cell was washed three times with 1 ml of Hanks' balanced salt solution (HBSS; 0.952 mM CaCl2, 5.36 mM KCl, 0.441 mM KH2PO4, 0.812 mM MgSO4, 136.7 mM NaCl, 0.385 mM Na2HPO4, 25 mM D-glucose, 10 mM MES: pH 6.0) at 37° C., then preincubated for five minutes. Subsequently, 250 μl of HBSS containing each inhibitor with the concentration shown in FIG. 4 and Table 8, and [^3H(G)] Gly-Sar (476 nM) was added and an uptake reaction was initiated at 37° C. The inhibitors, VK-PRX (No. 1˜6), were prepared such that the highest concentration of dissolved VK-PRX would be 500 μM or lower, and were filtrated through a filter, and then used for the uptake reaction. At the beginning of the reaction, the reaction solution was taken from each dish and placed into […]. Then, 4 ml of liquid scintillation cocktail (Clear-sol I, Nacalai tesque) was added to the solution, and radioactivity in the reaction solution was measured by a liquid scintillation counter (LSC-5100, Aloka Co. Ltd.). Two minutes after the beginning of the reaction, the reaction solution in each dish was removed by aspiration, and the reaction was stopped by washing the cells three times with 1 ml of ice-cooled HBSS (HEPES: pH 7.4). Subsequently, 250 μl of 5 N NaOH was added to each dish to solubilize the cells (for two hours or longer), and 250 μl of 5 N HCl was added for neutralization, then the whole amount was poured into mini vial, and 4 ml of liquid scintillation cocktail (Clear-sol I, Nacalai tesque) was added, and radioactivity taken in the cells was measured.
Further, in order to measure the amount of cellular proteins after the culture mentioned above, the cultured cells were solubilized, Bio-Rad Protein Assay reagent (Bio-Rad Co.) was added, and the absorbance at 595 nm was measured. As a standard, BSA (bovine serum albumin) was used. Based on the results, the uptake amount of [^3H] Gly-Sar into the cells [cell/medium ratio (μl/mg·protein)] was calculated according to the formula (3). The value of the control in FIG. 4 is the result of the uptake reaction conducted in the absence of the inhibitor. […] It has been shown that the uptake of [^3H]

hPEPT 1 [5] = target: T2, hPEPT 1; assay: Effect of preincubation with inhibitor on [^3H] Gly-Sar uptake by HeLa-hPEPT 1 cells; assay type: cell-based; details: FIG. 5
Description: Gly-Sar uptake was examined by using HeLa cells stably expressing hPEPT 1 (HeLa-hPEPT 1). In the presence or absence of each inhibitor with concentrations shown in FIG. 5, preincubation was conducted for 30 minutes (open columns), and after the reaction solution was removed, the inhibitory effect on [^3H] Gly-Sar uptake was measured in a manner similar to that of Example 5 except that the uptake reaction was conducted in HBSS containing the same concentration of the inhibitor and [^3H] Gly-Sar (476 nM) (closed columns). In the figure, “Mock” indicates the uptake by HeLa-pcDNA 3 cells. […] Gly-Sar.

Compound: CC1=C(C(=O)O)N2C(=O)[C@@H](NC(=O)[C@H](N)c3ccc(O)cc3)[C@H]2SC1 [Cefadroxil, cefadroxil]
- AUC(0-inf) (PEPT 1 [1]; 5 mg/kg, AUC0-∞ of CDX): 2700 ng·h/mL
- Tmax (PEPT 1 [1]; 5 mg/kg): 1.09 ± 0.08 h
- k el (PEPT 1 [1]; 5 mg/kg, ke (elimination rate constant) of CDX): 8.61e-05 s⁻¹
- Tmax (PEPT 1 [1]; […]): 0.95 h
- dose dependence of AUC0−∞ and Cmax of CDX (in words) (PEPT 1 [2]): saturation phenomenon
- AUC0-∞ of CDX (PEPT 1 [2]; male, Sprague-Dawley, 5 mg/kg): 272 ± 9.27 µg·min/mL
- ke (elimination rate constant) of CDX (PEPT 1 [2]; male, Sprague-Dawley, 5 mg/kg): 0.54 ± 0.06 h⁻¹
- Vd [3]: 0.162 ± 0.00899 L
- clearance [3]: 11 ± 0.41 mL/min
- [^3H] Gly-Sar uptake % of control (hPEPT 1 [4]; inhibitor 10 mM): 27.69 ± 1.44 % of control

Compound: Gly-Sar
- [^3H] Gly-Sar uptake % of control (hPEPT 1 [4]; inhibitor 10 mM): 12.93 ± 2.45 % of control

Compound: CC1=C(C(=O)O)N2C(=O)C(NC(=O)C(N)c3ccccc3)C2SC1 (centres unmarked) [Cephalexin, cephalexin]
- [^3H] Gly-Sar uptake % of control (hPEPT 1 [4]; inhibitor 10 mM): 70.12 ± 1.45 % of control

Compound: NCC(=O)O [Gly]
- [^3H] Gly-Sar uptake % of control (hPEPT 1 [4]; inhibitor 10 mM): 97.71 ± 7.10 % of control

Further lines, with some results ahead:

- [^3H] Gly-Sar uptake % of control (hPEPT 1 [4]; inhibitor 3 mM): 21.13 ± 1.80 % of control
Compound: CC(C)[C@H](N)C(=O)N[C@@H](CCCCN)C(=O)O [Val-Lys, valyl-lysine]

- Inhibitory effect on [^3H] Gly-Sar uptake (in words) (hPEPT 1 [5]): no inhibitory effect
- [^3H] Gly-Sar uptake % of control (hPEPT 1 [4]; inhibitor 3 mM): 125.87 ± 23.34 % of control
Compound: OC[C@H]1O[C@@H]2O[C@H]3[C@H](O)[C@@H](O)[C@@H](O[C@H]4[C@H](O)[C@@H](O)[C@@H](O[C@H]5[C@H](O)[C@@H](O)[C@@H](O[C@H]6[C@H](O)[C@@H](O)[C@@H](O[C@H]7[C@H](O)[C@@H](O)[C@@H](O[C@H]1[C@H](O)[C@H]2O)O[C@@H]7CO)O[C@@H]6CO)O[C@@H]5CO)O[C@@H]4CO)O[C@@H]3CO [α-CD, α-cyclodextrin]
- Inhibitory effect on [^3H] Gly-Sar uptake (in words) (hPEPT 1 [4]; HeLa-hPEPT 1, FIG. 4 and Table 8): significant inhibitory effect was not observed
